Measured values from patent publication US20240293537A1, “A[…]-GRAFTED LAURYL GAMMA-POL[…] USE THEREOF” (JIANGSU ACADEMY OF AGRICULTURAL SCIENCES, priority 2021, published 2024).

How the values were obtained:
Female Balb/c mice = settings: as adjuvant with OVA, 200 μL/mouse, serum 28 days after inoculation
Description: In addition, 500 μg/mL of an OVA solution (abbreviated as OVA) was prepared by taking a PBS buffer with a pH of 7.4 as a solvent; 100 μg/mL of an FIP solution (abbreviated as FIP) was prepared by taking a PBS buffer with a pH of 7.4 as a solvent.
After inoculation, the skin condition of the injection site was observed over one week. Blood was collected from the orbit 28 days after inoculation, and sera were separated and the antibody titer was measured.
The antibody titer was measured by adopting the following method: 10 μg/mL of an OVA protein solution was prepared by taking 0.05 mol/L of a Na2CO3—NaHCO3 buffer with a pH of 9.6 as a solvent. […]

RAW 264.7 cells = system: RAW 264.7 cells
Description: After incubation for 24 h, the cells were pipetted, washed three times with PBS, centrifuged and finally resuspended in ice PBS before assay with flow cytometer (BD FACSCalibur flow cytometer).

Compound | solubility in acidic aqueous solution (acidic aqueous solution with a pH≤6) | solubility in solvent phase (hot DMSO and DMF solutions) | IgG titer (OD450 nm) (Female Balb/c mice) | fluorescence of cells (uptake) (RAW 264.7 cells; RAW 264.7, 24 h, FIP 50 μg/mL) | fluorescence intensity of the cells with increase of FIP concentration (RAW 264.7 cells; RAW 264.7, different FIP concentrations)
CC(C)Cn1cnc2c(N)nc3ccccc3c21 [Vaccine R837, imiquimod] | can be dissolved | slightly soluble | 3.07 | – | –
fluorescein-labeled amphiphilic imiquimod-grafted lauryl γ-polyglutamate [FIP] | – | – | 2.1 | a distinct fluorescence peak could still be seen | gradually increased
